Assay results published in patent publication US20240092741A1, “COMPOSITION FOR PREVENTION OR TREATMENT OF NEUROFIBROMATOSIS TYPE 2 SYNDROME” (PRG S&TECH INC., priority 2021, published 2024).
Peptide text beside a SMILES is read from it. * marks the point of attachment. Cbz = O=C(OCc1ccccc1)*

Tests used:
[1] = tested on: HEI-193 cells; test: Western blotting of marker proteins in HEI-193 cells; assay type: cell-based, human; details: HEI-193 cells pretreated 6 h with leptomycin B 2 ng/ml or MG132 5 μM, then 10 μM compounds 24 h (FIGS. 14F, 14G)
Procedure: (§1) Cells were harvested and lysed using RIPA buffer [50 mM Tris-Cl, pH 7.5, 150 mM NaCl, 1% NP-40, 0.1% SDS, and 10% sodium deoxycholate] to examine cellular signaling. Protein concentrations in samples were measured using Bio-Rad (Hercules, CA, USA) protein assay kits and BSA standards. The samples (20 μg protein per lane) were separated by sodium dodecyl sulfate-polyacrylamide gel electrophoresis (SDS-PAGE), transferred to Immobilon-P^SQ transfer membranes (Millipore Corp., MA, USA), which were then cultured with 3% skim milk-containing TBS-T buffer (Tris-HCl-based buffer containing 20 mM Tris pH 7.6, 150 mM NaCl, and 0.05% Tween 20) for 1 hour at room temperature and then reacted with primary antibody in TBS-T overnight at 4° C. The membranes were then washed and reacted with secondary horseradish peroxidase (HRP)-conjugated antibodies [goat anti-mouse, goat anti-rabbit, and mouse anti-goat antibodies (Pierce, Thermo Fisher Scientific, Inc., Rockford, IL, USA)] in TBS-T at room temperature for 2 hours. The blots were detected using an HRP-conjugated secondary antibody using ECL kit (Intron, Seoul, Korea).

[2] = tested on: normal fibroblasts; test: MTT cell viability assay in normal fibroblasts; assay type: cell-based, human; details: 10 μM, 48 h (FIG. 3)
Procedure: (§2) To measure cell viability, MTT (3-(4,5-dimethylthiazol-2-yl)-2,5-diphenyltetrazolium bromide) assay was used. In other words, the cells were seeded in 96-well plates and treated with the indicated chemicals for a predetermined time. After removing the medium, 200 μl of MTT solution (0.5 mg/ml) dissolved in PBS was added to each well. Plates were then cultured at 37° C. for 4 hours, the MTT solution was removed, the precipitated substances were dissolved using a solution (DMSO:ethanol=1:1), and an amount of formazan dye produced was quantified by measuring the absorbance at 560 nm using an ELISA microplate reader (Thermo Fisher Scientific, MA, USA).

[3] = tested on: RKIP; test: RKIP expression by Western blotting in HEI-193 cells; assay type: cell-based, human; details: compounds 10 μM, 24 h (FIG. 1A) or 72 h (FIG. 2), Western blot
Procedure: as §1
Because RKIP degradation in NF2 cells is clearly known (Mol Cancer Ther 17, 2271-2284, 2018), after first treating 260 novel synthetic compounds, RKIP expression was measured in HEI-193, a human NF2 cell line.

[4] = tested on: HEI-193 cells; test: MTT cell viability assay in HEI-193 cells; assay type: cell-based, human; details: 10 μM, 48 h
Procedure: as §2

[5] = biological target: T1, interaction between TβR1 and RKIP (Homo sapiens, UniProt P30086+P36897); test: GST-pull down assay of TβR1-RKIP interaction; assay type: binding; details: GST-RKIP beads with TβR1-transfected HEK293 lysates, 5 and 10 μM, 2 h (FIG. 5B)
T1 construct: host or cells: HEK293 (TβR1 lysate)
Procedure: For protein-protein interaction analysis, glutathione S-transferase (GST)-pull down assay was performed. For GST-pull down, agarose-bead-conjugated GST-RKIP recombinant protein was reacted with FLAG-tagged TβR1-transfected HEK 293 cell lysates in PBS buffer at 4° C. for 1 hour. Immunoprecipitation (IP) assay was performed by reacting with FLAG-tagged TβR1- or HA-tagged RKIP-transfected HEI-193 cell lysates in PBS buffer. Whole lysates were reacted with appropriate primary antibodies at 4° C. for 2 hours and with agarose-bead-conjugated protein A/G (Invitrogen, Carlsbad, CA, USA) for 2 hours. After centrifugation, the precipitates were washed twice with RIPA buffer and subjected to SDS-PAGE and western blotting analysis.

[6] = tested on: HEI-193 cells; test: Tumorsphere formation assay, HEI-193 cells; assay type: cell-based, human; details: HEI-193 cells, 10 μM, DMEM/F12 medium
Procedure: (§3) For tumorsphere formation assay, Hei-193 or mouse schwannoma cells (3×10^6 cells/plate) were cultured in DMEM/F12 medium (supplemented with 2% B27 and 40 ng/ml bFGF) and added with the indicated chemicals on non-coated plates for indicated days.

[7] = tested on: mouse schwannoma cells; test: MTT cell viability assay in mouse schwannoma cells; assay type: cell-based; details: mouse schwannoma (NF2 mouse) cells, 10 μM, 48 h
Procedure: as §2

[8] = tested on: TGF-β signaling; test: Smad2/3 phosphorylation after TGF-β1 in HEI-193 cells; assay type: cell-based, human; details: 10 μM, TGF-β1 2 ng/ml added after 12 h for 12 h (FIG. 5D)
Procedure: as §1

[9] = tested on: SOX2; test: SOX2 localization by IF and cell fractionation in HEI-193 cells; assay type: cell-based, human; details: 2 μM, 24 h, IF and cell fractionation (FIGS. 15C, 15D)
Procedure: Cells were seeded on cover glass, washed with PBS, fixed with 4% paraformaldehyde (PFA) for 30 minutes at room temperature, and then permeabilized with 0.2% Triton X-100 at room temperature for 5 minutes. After treatment with blocking buffer [3% goat serum diluted in PBS] for 1 hour, cells were reacted with the specified antibody in the blocking buffer overnight at 4° C. Finally, the cells were reacted with secondary antibodies conjugated with FITC or rhodamine at 4° C. for 7 hours. The nuclei were stained with DAPI at room temperature for 10 minutes. After the cells were washed 3 times with PBS, the cover glass was mounted with a mounting solution (H-5501, Vector Laboratories, Cambridgeshire, UK) and immunofluorescence signals were detected using a fluorescence microscopy (Zeiss, Jena, Germany).

[10] = tested on: mouse schwannoma cells; test: Tumorsphere formation assay, mouse schwannoma cells; assay type: cell-based; details: 10 μM, DMEM/F12 medium
Procedure: as §3

[11] = tested on: schwannoma; details: Mol Cancer Ther 17, 2271-2284, 2018; cited from earlier work

T1 sequence (P30086 whole entry): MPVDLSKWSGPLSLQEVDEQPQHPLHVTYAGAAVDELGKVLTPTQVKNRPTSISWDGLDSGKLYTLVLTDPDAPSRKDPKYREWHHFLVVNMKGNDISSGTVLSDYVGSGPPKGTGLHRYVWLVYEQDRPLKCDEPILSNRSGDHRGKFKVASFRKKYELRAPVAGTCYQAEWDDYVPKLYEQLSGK
T1 sequence (P36897 34-503): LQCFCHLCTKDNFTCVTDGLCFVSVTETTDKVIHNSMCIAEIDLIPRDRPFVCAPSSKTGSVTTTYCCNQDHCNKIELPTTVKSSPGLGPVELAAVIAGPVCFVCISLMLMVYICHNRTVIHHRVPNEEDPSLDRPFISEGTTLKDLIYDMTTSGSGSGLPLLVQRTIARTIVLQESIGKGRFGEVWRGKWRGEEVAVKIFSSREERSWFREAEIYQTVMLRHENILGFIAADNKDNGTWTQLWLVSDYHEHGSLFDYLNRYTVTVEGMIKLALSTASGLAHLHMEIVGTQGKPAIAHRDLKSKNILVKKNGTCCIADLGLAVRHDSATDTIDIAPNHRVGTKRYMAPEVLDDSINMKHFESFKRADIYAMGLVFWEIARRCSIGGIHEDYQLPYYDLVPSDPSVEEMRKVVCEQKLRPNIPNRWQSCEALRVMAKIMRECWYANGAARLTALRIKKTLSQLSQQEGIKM

CC(C)C[C@@H](C=O)NC(=O)[C@H](CC(C)C)NC(=O)[C@H](CC(C)C)NC(=O)OCc1ccccc1 [MG312, reference compound] (Cbz-Leu-Leu-Leu-aldehyde)
PRG-N-01/TEW7197-induced reduction in SOX2 [1]: blocked

CCN(CC)CCOc1ccc(-c2nnn(Cc3ccc(OCc4ccccc4)cc3)c2NC(=O)OC(C)(C)C)cc1 [NF-08001]
cytotoxicity in normal cells (MTT) [2]: exhibited normal cytotoxicity | RKIP expression [3]: induction of RKIP | cell viability (MTT) [4]: anti-proliferating effect | interaction between TβR1 and RKIP [5]: inhibitory effect

Cc1cccc(-c2[nH]c(CNc3ccccc3F)nc2-c2ccc3ncnn3c2)n1 [TEW7197, N-((4-([1,2,4]triazolo[1,5-a]pyridin-6-yl)-5-(6-methylpyridin-2-yl)-1H-imidazol-2-yl)methyl)-2-fluoroaniline, reference compound]
tumorsphere formation [6]: weak inhibitory effect | cell viability (MTT) [7]: suppressed cell viability | Smad2/3 phosphorylation in response to TGF-β [8]: TGF-β signal inhibition | localization of nuclear SOX2 [9]: moved to the cytosol | tumorsphere formation [10]: weak inhibitory effect | schwannoma in a mouse model with NF2 syndrome [11]: inhibited schwannoma | cell viability (MTT) [4]: suppressed cell viability

CCC(=C/[C@H](C)C/C=C/C(C)=C/[C@@H](C)C(=O)[C@@H](C)[C@H](O)[C@@H](C)C/C(C)=C/C(=O)O)/C=C/[C@@H]1OC(=O)C=C[C@@H]1C [leptomycin B, reference compound]
PRG-N-01/TEW7197-induced reduction in SOX2 [1]: blocked
